Data set [1] relates to C57bl/6 male mice. In words: plasma glucose levels (hypoglycemia) in fasted mice. Type of data set: in vivo, mouse. The following applies: 10 mpk or 30 mpk oral, 0-120 minutes post-dosing, FIG. 7. How it is done:
Plasma glucose levels were determined at 0 minute (right before dosing), and 30, 60, 90, and 120 minutes post-dosing using blood (˜5 μl) collected from tail nick and a glucose meter. Glycemic changes were graphed based on data from 6 mice and given in mean values +/−SEM.

Data set [2] deals with db/db mutant diabetic mice. In words: oGTT in diabetic db/db mice. The following applies: 3.3, 10 or 30 mpk oral, glucose bolus 2 gram/kg, FIG. 8. Type of data set: in vivo, mouse. How it is done: Thirty minutes later, a glucose bolus (2 gram/kg) was then delivered per orally. Plasma glucose levels were determined at indicated time points over a two hour period using blood (˜5 μl) collected from tail nick and a glucose meter. Glycemic excursion curve was graphed based on data from 6 mice and given in mean values +/−SEM.

Data set [3] has as its system C57bl/6 male mice. In words: insulin release in response to a glucose bolus in mice. Type of data set: in vivo, mouse. Particulars: 10 mpk oral; 5, 10 and 20 minutes after glucose bolus 3 g/kg, FIG. 5. The method, then:
C57bl/6 male mice (8 weeks of age) were fasted for 18 hours, and randomly assigned into eight groups with n=6 for each group. Mice were administered per orally with vehicle (20% HPCD) or with 10 mpk EMD 386088. After 30 minutes, a glucose bolus of 3 g/kg was administered orally. Blood was collected in heparinated blood collection tubes at 0 minute (no glucose bolus), 5 minutes, 10 minutes, and 20 minutes after glucose bolus. Plasma samples were obtained via centrifugation at 500×g for 20 minutes and assayed for insulin using an Ultra Sensitive Insulin ELISA kit (Crystal Chem. Inc., Downers Grove, Ill.).

A further data set relates to C57/Bl6 mice. In words: oral glucose tolerance test (oGTT) in C57/Bl6 mice. Type of data set: in vivo, mouse. Particulars: 1, 3.3 or 10 mpk oral, 30 min before glucose bolus 3 gram/kg, FIG. 5. How it is done: Thirty minutes later, a glucose bolus (3 gram/kg) was then delivered per orally. Plasma glucose levels were determined at indicated time points over a two hour period using blood (˜5 μl) collected from tail nick and a glucose meter. Glycemic excursion curve was graphed based on data from 6 mice and given in mean values +/−SEM (FIG. 5 upper left panel).

In a further data set the target is rat 5-HT6 receptor (Rattus norvegicus, UniProt P31388). The following applies: cited from earlier work.
Data set [4] has as its target cloned human 5-HT6 subtype (Homo sapiens, UniProt P50406). The following applies: cited from earlier work.
A further data set concerns female DIO rat model. The following applies: cited from earlier work.
The next data set deals with DIO female rats. The following applies: cited from earlier work; for cumulative weekly food intake: DIO female rats; for weight-loss versus control: after 28 days of administration, DIO rats.
In a further data set the target is 5-HT6 receptor (Homo sapiens, UniProt P50406). Particulars: cited from earlier work.
The subject of data set [5] is normal lean and DIO female rats. The following applies: cited from earlier work.
The conditions of data set [6]: 30 mg/kg i.p., daily for 3 days, growing rats; cited from earlier work.

The source of these data is patent publication US20110319451A1, “5-Ht6 Receptor and Modulators Thereof for the Treatment of Insulin-Related Disorders” (priority 2008, published 2011).

What is called Ki is the equilibrium dissociation constant of an inhibitor or competing ligand from its target.

Sequence of rat 5-HT6 receptor (P31388 whole entry): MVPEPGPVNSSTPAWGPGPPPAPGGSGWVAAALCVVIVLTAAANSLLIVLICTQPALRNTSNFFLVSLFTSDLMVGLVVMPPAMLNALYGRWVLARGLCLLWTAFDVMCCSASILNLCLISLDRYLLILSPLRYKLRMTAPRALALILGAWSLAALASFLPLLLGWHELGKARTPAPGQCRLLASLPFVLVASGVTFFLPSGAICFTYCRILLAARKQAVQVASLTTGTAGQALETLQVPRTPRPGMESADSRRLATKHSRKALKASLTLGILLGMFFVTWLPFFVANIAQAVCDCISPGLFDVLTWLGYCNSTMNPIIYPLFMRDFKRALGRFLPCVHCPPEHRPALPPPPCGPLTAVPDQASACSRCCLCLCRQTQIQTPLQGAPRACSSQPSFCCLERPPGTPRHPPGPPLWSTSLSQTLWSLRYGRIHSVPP
Sequence of 5-HT6 receptor (P50406 whole entry): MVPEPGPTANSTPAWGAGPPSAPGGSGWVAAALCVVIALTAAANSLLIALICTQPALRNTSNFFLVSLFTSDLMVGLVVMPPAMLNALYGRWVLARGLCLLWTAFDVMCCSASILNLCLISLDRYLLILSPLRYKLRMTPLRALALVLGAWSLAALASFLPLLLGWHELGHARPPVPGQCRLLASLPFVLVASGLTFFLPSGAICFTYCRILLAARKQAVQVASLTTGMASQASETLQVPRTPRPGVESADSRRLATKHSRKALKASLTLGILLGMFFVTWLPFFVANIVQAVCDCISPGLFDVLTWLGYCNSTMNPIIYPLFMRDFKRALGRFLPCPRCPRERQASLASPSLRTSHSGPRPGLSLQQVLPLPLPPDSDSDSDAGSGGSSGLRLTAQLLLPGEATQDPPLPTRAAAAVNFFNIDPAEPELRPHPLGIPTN
Sequence of cloned human 5-HT6 subtype (P50406 whole entry): as above

In the case of `Cc1[nH]c2ccc(Cl)cc2c1C1=CCNCC1` [Compound A, 5-Chloro-2-methyl-3-(1,2,3,6-tetrahydro-pyridin-4-yl)-1H-indole], in the data set on C57bl/6 male mice [1], the “hypoglycemia (plasma glucose levels) compared to control” value is “did not cause hypoglycemia”. The “plasma glucose concentration over time in oGTT compared to control” value in data set [2] was “dose dependent decrease in plasma glucose concentration”. In addition, the “insulin release compared to vehicle” value with C57bl/6 male mice [3] is listed as “increased insulin release”. Further, the “glucose excursion in oGTT” value with C57/Bl6 mice is listed as “improved glucose excursion in a dose-dependent fashion”.
In the case of `CN(C)CCc1c[nH]c2ccc(NS(=O)(=O)c3ccc4c(Cl)cccc4c3)cc12` [Compound E-6837], at rat 5-HT6 receptor, the “functionality at rat 5-HT6 receptor” value is reported as “partial agonist”. For the same molecule, the “functionality at cloned human 5-HT6 subtype” value in data set [4] is listed as “full agonist”. Besides, in the data set with female DIO rat model, the “food intake and adiposity” value is “reduce food intake and adiposity”. In the data set on DIO female rats, the “cumulative weekly food intake” value was “significantly decreased consumption during the first, second and third weeks of treatment”; the weight-loss versus control is recorded as 15.7%. Further, in the data set with DIO female rats (rat, in vivo), the “body composition of weight-loss” value was “selective reduction in body fat with no changes in either water or protein content”.
In the case of `COc1cc(Cl)cc(C(C)Nc2cc(N3CCNCC3)ccc2S(C)(=O)=O)c1OC.Cl` (centres unmarked) [PRX-07034], the Ki on 5-HT6 receptor is 4 nM. In data set [5] (acute studies, normal lean and DIO female rats), the food intake entry is listed as “inhibited food intake”. For the same molecule, the aversive effect result in data set [5] (rat, in vivo) is given as “no aversive effect”. In addition, in the data set with female DIO rat model, the “food intake and adiposity” value is “reduce food intake and adiposity”.
With `CNc1cc(NS(=O)(=O)c2ccc(N)cc2)nc(NC)n1` [Ro 04-6790], the body weight-gain result in data set [6] was “significantly attenuated body weight-gain”.
As for `CC(C)CC(N(C)C)C1(c2ccc(Cl)cc2)CCC1` (centres unmarked) [sibutramine], in the data set with DIO female rats, the “cumulative weekly food intake” value was “significantly reduced food intake only during the first week” and the weight-loss versus control is reported as 11.0%.
